pKd: −log10 of the molar value. Entries after “also recorded” stand apart in the source; their conditions may differ. Like-named read-outs stand apart in the source and are kept apart here. Ends that are not written are not given here.
Tests used:
HIV-1 CA hexamer [1] = target: T1, HIV-1 CA hexamer (Human immunodeficiency virus type 1 group M subtype B, UniProt P12493, A146C/E177C/M317A/W316A); test: biochemical; format: binding
T1 construct: produced by assembly of recombinant CA containing four amino acid substitutions; made in house
Description: (§1) Hexamer protein was dialysed against ITC buffer (50 mM TRIS pH 7.4, 150 mM NaCl) for experiments using intact hexamer, or ITC buffer containing 1 mM DTT for experiments with monomerized hexamer. The monomeric status of hexamer dialysed against buffer containing DTT was confirmed by size exclusion chromatography. Peptides were dissolved in the same buffer as hexamer; NUP153 peptides were first dissolved in DMSO to a concentration of 8 mM before diluting in buffer. Drugs were dissolved in DMSO to a concentration of 5 mM, before diluting in buffer. In all cases, hexamer (in the syringe) was titrated into the peptide or drug ligand (in the cell), with the exception of the competition experiments, whereby peptide (400 µM) was titrated into hexamer (30 µM) in the presence of drug (100 µM). Typical concentrations used were 600–800 µM hexamer titrated against 60–80 µM peptide unless indicated otherwise, and 200 µM hexamer titrated against 30 µM drug. ITC experiments were conducted on a MicroCal ITC-200, and data analyzed using Origin data analysis software (MicroCal).

monomeric HIV-1 CA = target: T2, monomeric HIV-1 CA (Human immunodeficiency virus type 1 group M subtype B, UniProt P12493, A146C/E177C/M317A/W316A); test: ITC binding to monomeric CA (hexamer monomerized with 1 mM DTT)
T2 construct: produced by assembly of recombinant CA containing four amino acid substitutions; made in house
Description: as §1

HIV-1 CA hexamer [2] = target: T1, HIV-1 CA hexamer; test: ITC competition: cofactor peptide titrated into hexamer in the presence of drug; format: binding
Description: as §1

[3] = system: VSV-G pseudotyped GFP-encoding HIV-1 vector; format: cell-based
[4] = system: HIV-1 reverse transcription; format: cell-based
[5] = read-out: Kd (approximate), hexamer binding of CPSF6 and NUP153 mutant peptides, ITC, Hex 0.76-1.122 mM into peptide 0.076-0.112 mM, NB = no binding detectable

## CN(C(=O)[C@H](Cc1ccccc1)NC(=O)Cc1cc[nH]c1)c1ccccc1 [PF74_3]
HIV-1 CA hexamer [1]
  pKd: 5.26
HIV-1 CA hexamer [1]; ITC
  Fold reduction in affinity to hexamer relative to PF74: 46 fold

## CN(C(=O)[C@H](Cc1ccccc1)NC(=O)Cc1ccoc1)c1ccccc1 [PF74_4]
HIV-1 CA hexamer [1]; ITC
  Fold reduction in affinity to hexamer relative to PF74: 94 fold

## CN(C(=O)[C@H](Cc1ccccc1)NC(=O)Cc1ccsc1)c1ccccc1 [PF74_5]
HIV-1 CA hexamer [1]; ITC
  Fold reduction in affinity to hexamer relative to PF74: 54 fold

## CN(C(=O)[C@H](Cc1ccccc1)NC(=O)CC1CCOC1)c1ccccc1 (stereo partly shown) [PF74_6]
HIV-1 CA hexamer [1]; ITC
  Fold reduction in affinity to hexamer relative to PF74: > 1000 fold

## PF74
HIV-1 CA hexamer [1]
  Fold higher affinity to hexamer than BI-2: 10 fold
  Fold increase in affinity to hexamer compared with monomeric CA: 22 fold
  N (stoichiometry), binding to HIV-1 hexamer: 0.7
  ΔH, binding to HIV-1 hexamer: -9.02 kcal/mol
  ΔS, binding to HIV-1 hexamer: 1.20 (cal/mol)/deg
Monomeric HIV-1 CA
  N (stoichiometry), binding to monomeric CA: 0.7
  ΔH, binding to monomeric CA: -16.1 kcal/mol
  ΔS, binding to monomeric CA: -29.0 (cal/mol)/deg
HIV-1 CA hexamer [2]
  Competition with CPSF6 peptide for binding to hexamer: inhibit CPSF6 binding to hexamer
  Competition with NUP153 peptide for binding to hexamer: prevent NUP153 binding to hexamer
[3]
  Reversal of inhibition of infection on wash out: completely; also recorded: partially
  Time post-infection by which almost all efficacy was lost when addition was delayed: ≤ 10 h
[4]
  Reversibility of block to reverse transcription on wash out: largely irreversible

## PVLFDGQPFGQPPLG [CPSF6pep P317D]
HIV-1 CA hexamer [1]; [5]
  pKd: < 3.15

## PVLFPGQPAGQPPLG [CPSF6pep F321A]
HIV-1 CA hexamer [1]; [5]
  pKd: < 3.15

## PVLFPRQPFGQPPLG [CPSF6pep G318R]
HIV-1 CA hexamer [1]; [5]
  pKd: < 3.15

## TNNSPAGVFTFGANSST [Nup153pep S1412A]
HIV-1 CA hexamer [1]
  pKd: ~3.89

## TNNSPSGVATFGANSST [Nup153pep F1415A]
HIV-1 CA hexamer [1]; [5]
  pKd: < 3.15

## TNNSPSGVFAFGANSST [Nup153pep T1416A]
HIV-1 CA hexamer [1]; [5]
  pKd: < 3.15

## TNNSPSGVFTAGANSST [Nup153pep F1417A]
HIV-1 CA hexamer [1]; [5]
  pKd: < 3.15

From paper PMC4214760, “Host Cofactors and Pharmacologic Ligands Share an Essential Interface in HIV-1 Capsid That Is Lost upon Disassembly” (PLoS Pathogens, 2014)
